Measurements: patent EP4745153A1, “GLP-1, GIP AND GCG RECEPTOR […] USE THEREOF” (Jiangsu Hengrui Pharmaceuticals Co., Ltd., priority 2023, dated 2025)
Like-named read-outs stand apart in the source and are kept apart here. Starred links: 1 amine or outer side, 2 acyl side, 3 side chain; linkers in the order of their positions; H or OH if unused. Non-standard residues stand in square brackets, D forms with d. Residues, ends and D or L forms follow the SMILES beside them. Groups on a side chain read outwards from the residue. No end group written: not given here. *: point of attachment. C20 diacid = O=C(O)CCCCCCCCCCCCCCCCCCC(=O)*; C17 diacid = O=C(O)CCCCCCCCCCCCCCCC(=O)*; γGlu = O=C(O)[C@H](CCC(=O)[*:2])N[*:1]; αMeK = C[C@](N)(CCCCN)C(=O)O; AEEA = NCCOCCOCC(=O)O; Aib = CC(C)(N)C(=O)O

Legend:
[1] = biological target: T1, human GIPR (Homo sapiens, UniProt P48546); test: cAMP HTRF agonist activity assay in CHO-K1 cells expressing GIPR; assay type: cell-based; for Activity against human GIPR (EC50 nM): 5% FBS, 0.1% Casein
T1 construct: expressed in transfected cells; host or cells: CHO-K1 clonal cell line
T1 sequence (P48546 22-466): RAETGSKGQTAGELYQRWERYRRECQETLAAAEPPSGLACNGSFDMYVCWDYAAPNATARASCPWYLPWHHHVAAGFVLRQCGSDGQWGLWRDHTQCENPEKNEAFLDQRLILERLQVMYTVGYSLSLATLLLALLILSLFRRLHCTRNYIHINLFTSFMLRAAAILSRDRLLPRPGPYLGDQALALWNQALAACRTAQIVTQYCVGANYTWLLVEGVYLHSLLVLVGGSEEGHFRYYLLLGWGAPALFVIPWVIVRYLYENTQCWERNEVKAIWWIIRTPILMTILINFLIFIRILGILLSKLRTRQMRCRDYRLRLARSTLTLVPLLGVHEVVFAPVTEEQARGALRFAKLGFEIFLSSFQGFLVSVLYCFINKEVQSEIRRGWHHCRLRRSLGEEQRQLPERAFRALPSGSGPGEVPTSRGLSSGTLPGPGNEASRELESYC
Procedure, shortened: (§1)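 Clonal CHO-K1 lines, 5000 cells/well, exposed to polypeptides for 30 min at 37°C. Intracellular cAMP read by HTRF (cAMP-d2 conjugate plus anti-cAMP-Eu cryptate in lysis buffer). Relative EC50 from four-parameter nonlinear fit of percent maximum response against concentration.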

[2] = biological target: T2, human GLP-1R (Homo sapiens, UniProt P43220); test: cAMP HTRF agonist activity assay in CHO-K1 cells expressing GLP-1R; assay type: cell-based; for Activity against human GLP-1R (EC50 nM): 5% FBS, 0.1% Casein
T2 construct: expressed in transfected cells; host or cells: CHO-K1 clonal cell line
T2 sequence (P43220 24-463): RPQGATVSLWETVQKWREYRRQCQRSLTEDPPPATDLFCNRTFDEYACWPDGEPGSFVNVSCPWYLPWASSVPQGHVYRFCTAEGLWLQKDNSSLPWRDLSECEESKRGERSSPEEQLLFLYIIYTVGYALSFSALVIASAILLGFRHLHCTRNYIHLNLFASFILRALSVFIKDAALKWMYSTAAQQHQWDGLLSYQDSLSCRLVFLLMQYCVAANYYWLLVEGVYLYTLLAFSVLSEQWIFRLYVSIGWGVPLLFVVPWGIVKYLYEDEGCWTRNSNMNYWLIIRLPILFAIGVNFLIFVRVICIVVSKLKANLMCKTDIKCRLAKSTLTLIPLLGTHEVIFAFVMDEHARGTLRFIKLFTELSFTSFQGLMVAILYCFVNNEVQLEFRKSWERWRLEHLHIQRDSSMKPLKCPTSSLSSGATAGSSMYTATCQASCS
Procedure, shortened: as §1

[3] = Pharmacokinetics in mice after single intravenous injection; set-up: species or system C57 mice; details: mouse, in vivo, male C57 mice, single intravenous dose 200 nmol/kg, plasma
Procedure, shortened: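 Male C57 mice (~25 g, 4-6 weeks, n=3) received a single i.v. dose of 200 nmol/kg in 1×PBS. Plasma collected from 5 min to 72 h was methanol-precipitated with verapamil internal standard and quantified by LC-MS (ESI positive, MRM); PK parameters were calculated by PKSolver.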

[4] = biological target: T3, human GCGR (Homo sapiens, UniProt P47871); test: cAMP HTRF agonist activity assay in CHO-K1 cells expressing GCGR; assay type: cell-based; for Activity against human GCGR (EC50 nM): 5% FBS, 0.1% Casein
T3 construct: expressed in transfected cells; host or cells: CHO-K1 clonal cell line
T3 sequence (P47871 26-477): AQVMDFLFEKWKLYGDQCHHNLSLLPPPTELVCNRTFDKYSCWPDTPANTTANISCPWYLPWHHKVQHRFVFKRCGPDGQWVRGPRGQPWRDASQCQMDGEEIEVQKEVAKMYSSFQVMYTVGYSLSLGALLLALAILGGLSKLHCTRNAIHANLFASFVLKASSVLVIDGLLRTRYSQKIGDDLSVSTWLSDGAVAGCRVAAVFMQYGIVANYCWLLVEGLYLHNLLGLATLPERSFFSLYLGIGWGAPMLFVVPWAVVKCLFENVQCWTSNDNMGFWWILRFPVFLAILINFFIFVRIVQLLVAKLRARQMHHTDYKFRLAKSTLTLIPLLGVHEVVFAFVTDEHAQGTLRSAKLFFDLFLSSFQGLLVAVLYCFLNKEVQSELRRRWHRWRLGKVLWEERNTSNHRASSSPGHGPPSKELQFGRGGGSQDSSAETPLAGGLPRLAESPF
Description: Functional activity was determined in CHO-K1 clonal cell lines expressing GIPR, GLP-1R, and GCGR. […] Each recipient cell (5000 cells/well) was added to an SV 96-well plate (Cisbio, 66PL96025) and incubated with the prepared polypeptide at 37°Cfor 30 min. The resulting increase in intracellular cAMP was quantitatively measured using the cAMP-GS dynamic HTRF assay kit (Cisbio, 62AM4PEJ). Briefly, the intracellular cAMP levels were determined by adding cAMP-d2 conjugate in cell lysis buffer, followed by the antibody anti-cAMP-Eu cryptate (also in cell lysis buffer).
Using the maximum response percentage vs. the added polypeptide concentration, the relative EC50 values were derived through nonlinear regression analysis and fitted to a four-parameter logarithmic equation. For specific data, refer to Tables 7-1 to 7-8 below. […]

[5] = biological target: T4, human glucose-dependent insulinotropic polypeptide receptor (human, UniProt P48546 22-466); test: cell-based or functional assay
T4 sequence (looked up): T1 sequence (P48546 22-466)

CC[C@H](C)[C@H](NC(=O)[C@](C)(CCCCN)NC(=O)[C@H](CO)NC(=O)[C@H](Cc1ccc(O)cc1)NC(=O)[C@H](CC(=O)O)NC(=O)[C@H](CO)NC(=O)[C@@H](NC(=O)[C@H](Cc1ccccc1)NC(=O)[C@@H](NC(=O)CNC(=O)[C@H](Cc1c[nH]cn1)NC(=O)C(C)(C)NC(=O)[C@@H](N)Cc1c[nH]cn1)[C@@H](C)O)[C@@H](C)O)C(=O)N[C@@H](CC(C)C)C(=O)N[C@@H](CCC(=O)O)C(=O)N[C@@H](CCCCNC(=O)COCCOCCNC(=O)COCCOCCNC(=O)CC[C@H](NC(=O)CCCCCCCCCCCCCCCCCCC(=O)O)C(=O)O)C(=O)N[C@@H](CCCCN)C(=O)N[C@@H](C)C(=O)N[C@@H](C)C(=O)N[C@@H](CCC(N)=O)C(=O)N[C@@H](CCC(=O)O)C(=O)N[C@@H](Cc1ccccc1)C(=O)N[C@H](C(=O)N[C@@H](CCC(=O)O)C(=O)N[C@@H](Cc1c[nH]c2ccccc12)C(=O)N[C@@H](CC(C)C)C(=O)N[C@@H](CC(C)C)C(=O)N[C@@H](C)C(=O)NCC(=O)NCC(=O)N1CCC[C@H]1C(=O)N[C@@H](CO)C(=O)N[C@@H](CO)C(=O)NCC(=O)N[C@@H](C)C(=O)N1CCC[C@H]1C(=O)N1CCC[C@H]1C(=O)N1CCC[C@H]1C(=O)N[C@@H](CO)C(N)=O)C(C)C [Compound 0119] (H-H[Aib]HGTFTSDYS[αMeK]ILEK([AEEA-AEEA-γGlu-C20 diacid])KAAQEFVEWLLAGGPSSGAPPPS-NH2)
EC50 [1]: 0.005 nM | EC50 [2]: 0.023 nM | AUC(0-inf) [3]: 55.9 µM·h | C0 [3]: 6.17 µM | clearance ([3]; read-out: CLp): 3.48 mL/h/kg | half-life ([3]; read-out: T1/2 (converted)): 13 h | EC50 [4]: 0.087 nM

CC[C@H](C)[C@H](NC(=O)[C@H](CO)NC(=O)[C@H](Cc1ccc(O)cc1)NC(=O)[C@H](CC(=O)O)NC(=O)[C@H](CO)NC(=O)[C@@H](NC(=O)[C@H](Cc1ccccc1)NC(=O)[C@@H](NC(=O)CNC(=O)[C@H](Cc1c[nH]cn1)NC(=O)C(C)(C)NC(=O)[C@@H](N)Cc1c[nH]cn1)[C@@H](C)O)[C@@H](C)O)C(=O)N[C@@H](CC(C)C)C(=O)N[C@@H](CC(C)C)C(=O)N[C@@H](CCC(=O)O)C(=O)N[C@@H](CCCCNC(=O)COCCOCCNC(=O)COCCOCCNC(=O)CC[C@H](NC(=O)CCCCCCCCCCCCCCCCCCC(=O)O)C(=O)O)C(=O)N[C@@H](CCCCN)C(=O)N[C@@H](C)C(=O)N[C@@H](C)C(=O)NC(C)(CC)C(=O)N[C@@H](CCC(=O)O)C(=O)N[C@@H](Cc1ccccc1)C(=O)N[C@H](C(=O)N[C@@H](CCC(=O)O)C(=O)N[C@@H](Cc1c[nH]c2ccccc12)C(=O)N[C@@H](CC(C)C)C(=O)N[C@@H](CC(C)C)C(=O)N[C@@H](C)C(=O)NCC(=O)NCC(=O)N1CCC[C@H]1C(=O)N[C@@H](CO)C(=O)N[C@@H](CO)C(=O)NCC(=O)N[C@@H](C)C(=O)N1CCC[C@H]1C(=O)N1CCC[C@H]1C(=O)N1CCC[C@H]1C(=O)N[C@@H](CO)C(N)=O)C(C)C (stereo partly shown) [Compound 0135]
EC50 ([1]; read-out: Activity against human GIPR (EC50 nM)): 0.001 nM | EC50 ([2]; read-out: Activity against human GLP-1R (EC50 nM)): 0.013 nM | EC50 ([4]; read-out: Activity against human GCGR (EC50 nM)): 0.019 nM

B1: Compound No. 0117 (peptide)
peptide: H[Aib]HGTFTSDYS[αMeK]LLEK([AEEA-AEEA-γGlu-C20 diacid])QAAQEFVEWLLAGGPSSGAPPPS-NH2
modifications: N-terminus assumed
SMILES: CC(C)C[C@H](NC(=O)[C@H](CC(C)C)NC(=O)[C@H](Cc1c[nH]c2ccccc12)NC(=O)[C@H](CCC(=O)O)NC(=O)[C@@H](NC(=O)[C@H](Cc1ccccc1)NC(=O)[C@H](CCC(=O)O)NC(=O)[C@H](CCC(N)=O)NC(=O)[C@H](C)NC(=O)[C@H](C)NC(=O)[C@H](CCC(N)=O)NC(=O)[C@H](CCCCNC(=O)COCCOCCNC(=O)COCCOCCNC(=O)CC[C@H](NC(=O)CCCCCCCCCCCCCCCCCCC(=O)O)C(=O)O)NC(=O)[C@H](CCC(=O)O)NC(=O)[C@H](CC(C)C)NC(=O)[C@H](CC(C)C)NC(=O)[C@](C)(CCCCN)NC(=O)[C@H](CO)NC(=O)[C@H](Cc1ccc(O)cc1)NC(=O)[C@H](CC(=O)O)NC(=O)[C@H](CO)NC(=O)[C@@H](NC(=O)[C@H](Cc1ccccc1)NC(=O)[C@@H](NC(=O)CNC(=O)[C@H](Cc1c[nH]cn1)NC(=O)C(C)(C)NC(=O)[C@@H](N)Cc1c[nH]cn1)[C@@H](C)O)[C@@H](C)O)C(C)C)C(=O)N[C@@H](C)C(=O)NCC(=O)NCC(=O)N1CCC[C@H]1C(=O)N[C@@H](CO)C(=O)N[C@@H](CO)C(=O)NCC(=O)N[C@@H](C)C(=O)N1CCC[C@H]1C(=O)N1CCC[C@H]1C(=O)N1CCC[C@H]1C(=O)N[C@@H](CO)C(N)=O
Activity against human GIPR (EC50 nM) [5]: 0.003 nM

B2: Compound No. 0114 (peptide)
peptide: Y[Aib]QGTFTSDYS[αMeK]LLEK([AEEA-AEEA-γGlu-C20 diacid])KAAQEFVEWLLAGGPSSGAPPPS-NH2
modifications: N-terminus assumed
SMILES: CC(C)C[C@H](NC(=O)[C@H](CC(C)C)NC(=O)[C@H](Cc1c[nH]c2ccccc12)NC(=O)[C@H](CCC(=O)O)NC(=O)[C@@H](NC(=O)[C@H](Cc1ccccc1)NC(=O)[C@H](CCC(=O)O)NC(=O)[C@H](CCC(N)=O)NC(=O)[C@H](C)NC(=O)[C@H](C)NC(=O)[C@H](CCCCN)NC(=O)[C@H](CCCCNC(=O)COCCOCCNC(=O)COCCOCCNC(=O)CC[C@H](NC(=O)CCCCCCCCCCCCCCCCCCC(=O)O)C(=O)O)NC(=O)[C@H](CCC(=O)O)NC(=O)[C@H](CC(C)C)NC(=O)[C@H](CC(C)C)NC(=O)[C@](C)(CCCCN)NC(=O)[C@H](CO)NC(=O)[C@H](Cc1ccc(O)cc1)NC(=O)[C@H](CC(=O)O)NC(=O)[C@H](CO)NC(=O)[C@@H](NC(=O)[C@H](Cc1ccccc1)NC(=O)[C@@H](NC(=O)CNC(=O)[C@H](CCC(N)=O)NC(=O)C(C)(C)NC(=O)[C@@H](N)Cc1ccc(O)cc1)[C@@H](C)O)[C@@H](C)O)C(C)C)C(=O)N[C@@H](C)C(=O)NCC(=O)NCC(=O)N1CCC[C@H]1C(=O)N[C@@H](CO)C(=O)N[C@@H](CO)C(=O)NCC(=O)N[C@@H](C)C(=O)N1CCC[C@H]1C(=O)N1CCC[C@H]1C(=O)N1CCC[C@H]1C(=O)N[C@@H](CO)C(N)=O
Activity against human GIPR (EC50 nM) [5]: 0.01 nM

B3: Compound No. 0118 (peptide)
peptide: H[Aib]HGTFTSDYS[αMeK]LLEK([AEEA-AEEA-γGlu-C17 diacid])IAAQEFVEWLLAGGPSSGAPPPS-NH2
modifications: N-terminus assumed
SMILES: CC[C@H](C)[C@H](NC(=O)[C@H](CCCCNC(=O)COCCOCCNC(=O)COCCOCCNC(=O)CC[C@H](NC(=O)CCCCCCCCCCCCCCCC(=O)O)C(=O)O)NC(=O)[C@H](CCC(=O)O)NC(=O)[C@H](CC(C)C)NC(=O)[C@H](CC(C)C)NC(=O)[C@](C)(CCCCN)NC(=O)[C@H](CO)NC(=O)[C@H](Cc1ccc(O)cc1)NC(=O)[C@H](CC(=O)O)NC(=O)[C@H](CO)NC(=O)[C@@H](NC(=O)[C@H](Cc1ccccc1)NC(=O)[C@@H](NC(=O)CNC(=O)[C@H](Cc1c[nH]cn1)NC(=O)C(C)(C)NC(=O)[C@@H](N)Cc1c[nH]cn1)[C@@H](C)O)[C@@H](C)O)C(=O)N[C@@H](C)C(=O)N[C@@H](C)C(=O)N[C@@H](CCC(N)=O)C(=O)N[C@@H](CCC(=O)O)C(=O)N[C@@H](Cc1ccccc1)C(=O)N[C@H](C(=O)N[C@@H](CCC(=O)O)C(=O)N[C@@H](Cc1c[nH]c2ccccc12)C(=O)N[C@@H](CC(C)C)C(=O)N[C@@H](CC(C)C)C(=O)N[C@@H](C)C(=O)NCC(=O)NCC(=O)N1CCC[C@H]1C(=O)N[C@@H](CO)C(=O)N[C@@H](CO)C(=O)NCC(=O)N[C@@H](C)C(=O)N1CCC[C@H]1C(=O)N1CCC[C@H]1C(=O)N1CCC[C@H]1C(=O)N[C@@H](CO)C(N)=O)C(C)C
Activity against human GIPR (EC50 nM) [5]: 0.004 nM
